The values that follow come from publication PMC6832219, “Synthesis of Novel Baicalein Amino Acid Derivatives and Biological Evaluation as Neuroprotective Agents” (Molecules, 2019).

Structures are written as SMILES.

Data set [1] deals with H9C2 cells. Description: Toxicity on normal H9C2 cells (MTT assay). To be noted: MTT. The format is cell-based. How it is done: To study cytotoxicity on normal cells, the cytotoxicity of compounds against normal H9C2 cells were tested.
(§1) The SH-SY5Y ([…]) and H9C2 ([…]) cell lines were obtained from the Chinese Academy of Medical Sciences and Peking Union Medical College. All of the cell lines were grown in dulbecco’s modified eagle medium (DMEM) with 10% (v/v) fetal bovine serum (FBS) and 1% (v/v) penicillin/streptomycin (Thermo Technologies, New York, NY, USA), under a humidified atmosphere containing 5% CO2 at 37 °C. The baicalein derivatives were dissolved in DMSO (Sigma, St. Louis, MO, USA) and added at various concentrations to the cell culture.
(§2) The protective effect of these compounds was evaluated on SH-SY5Y and H9C2 cell lines via the MTT method. The cells growing in the logarithmic phase were cultured in 96-well plates at a density 3 × 10^3 cells/well and incubated for 24 h. Then each well was treated with the required concentrations (50 µM concentrations, 25 µM concentrations, 12.5µM concentrations, 6.25 µM concentrations, and 3.125 µM concentrations) of baicalein derivatives, and incubated 36 h at 37 °C with 5% CO2. After that, the cells were induced by H2O2 (final concentration, […]) for 12 h. Control-differentiated cells were injected with new growth media at equal amounts. Before […] MTT solution (5 mg/mL) was added to each well, the cell culture fluid was discarded, and […] fresh cell culture fluid was added. The plate was incubated for a further 4 h at 37 °C. The cell supernatant medium was removed carefully, without disturbing the attached cells, and formazan crystals were solubilized by adding 150 μL DMSO into each well. The absorbance was measured at 490 nm with a plate reader (BIORAD 550 spectrophotometer, Bio-rad Life Science Development Ltd., Beijing, China). H2O2 was dissolved in DMEM medium. Wells without drugs were used as blanks. The EC50 values were defined as the concentrations that causes the maximum effect of 50%; IC50 values were defined as the concentration of compound which gives 50% growth inhibition, and were calculated using the GraphPad Prism 5. The proliferation rates of damaged SH-SY5Y cells were calculated in the following formula (1): [OD490 (compound) − OD490 (CoCl2)]/[OD490 (NGF) − OD490 (CoCl2)] × 100%(1) The EC50 values were using the equation −pEC50 = log Cmax − log 2 × (ΣP − 0.75 + 0.25Pmax + 0.25Pmin)(2) where Cmax is the maximum concentration, ΣP is the sum of proliferation rates, Pmax is the maximum value of the proliferation rate, and Pmin is the minimum value of the proliferation rate. Cell viability was expressed as a percentage of the control.
The inhibition rate was calculated in the following equation: % inhibition = 1 − (Sample group OD/Control group OD) × 100%(3)

Data set [2] deals with H9C2 cells. Kind of data set: Toxicity on normal H9C2 cells (MTT assay). Particulars: read-out: Survival Rate (%). The format is cell-based. In general terms: Tetrazolium dyes change colour on reduction, which living cells bring about.
Data set [3] deals with injured SH-SY5Y cells. Description: Protective effect against tert-butyl hydroperoxide-induced SH-SY5Y neurotoxicity cells (MTT assay).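 For Proliferation Rate (%): 0% equals CoCl2-injured cells and 100% equals NGF-treated cells.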 The format is cell-based. Particulars: Homo sapiens. On the procedure: The protective effects of baicalein derivatives in vitro was evaluated against tert-butyl, hydroperoxide-induced, SH-SY5Y neurotoxicity cells using an MTT assay. In addition, their toxicity evaluation was tested on normal H9C2 cells. The resulting proliferation rates (%) at different concentrations, as well as their 50% effective concentrations (EC50) for protecting damaged SH-SY5Y cells of the baicalein amino acid derivatives, are summarized in Table 2.
as §1, §2

As usually defined, the IC50 is the concentration at which inhibition is half-maximal. A low value points to greater potency. Broadly, the melting point is the temperature of the solid-liquid transition. The EC50 is the concentration that produces a half-maximal response. Regarding `CN(CC(=O)Oc1cc2oc(-c3ccccc3)cc(=O)c2c(O)c1OC(=O)CN(C)C(=O)OC(C)(C)C)C(=O)OC(C)(C)C` [Compound 13, 7-[(2-{[(tert-butoxy)carbonyl](methyl)amino}acetyl)oxy]-5-hydroxy-4-oxo-2-phenyl-4H-chromen-6-yl 2-{[(tert-butoxy)carbonyl](methyl)amino}acetate], the melting point amounted to 205.1 °C. Further, the viability at 6.25 µM in data set [1] (6.25 µM, H9C2 cells, read-out: Survival Rate (%)) stood at 215%. In addition, the viability at 12.5 µM in data set [1] (12.5 µM, H9C2 cells, read-out: Survival Rate (%)) came out at 166%. Also, the viability at 25 µM in data set [1] (25 µM, H9C2 cells, read-out: Survival Rate (%)) is 152%. The viability at 50 µM in data set [1] (50 µM, H9C2 cells, read-out: Survival Rate (%)) is 132%. For the same molecule, in data set [1] (normal H9C2 cells), the IC50 was above 100 µM. Also, the viability at 100 µM in data set [2] is 123%. In addition, in data set [3] (3.125 µM, injured SH-SY5Y cells, read-out: Proliferation Rate (%)), the viability at 3.125 µM turned out to be 40.1%. In addition, in data set [3] (6.25 µM, injured SH-SY5Y cells, read-out: Proliferation Rate (%)), the viability at 6.25 µM stood at 92.1%. Besides, the viability at 12.5 µM in data set [3] (12.5 µM, injured SH-SY5Y cells, read-out: Proliferation Rate (%)) came to 91.5%. In addition, the viability at 25 µM in data set [3] (25 µM, injured SH-SY5Y cells, read-out: Proliferation Rate (%)) came to 73%. In addition, the viability at 50 µM in data set [3] (50 µM, injured SH-SY5Y cells, read-out: Proliferation Rate (%)) amounted to 65.9%. Besides, the concentration for a half-maximal effect (EC50) in data set [3] (tert-butyl hydroperoxide-induced SH-SY5Y neurotoxicity, read-out: EC50 for protecting injured SH-SY5Y cells) is 5.42 µM.
